Results from PubChem BioAssay AID1259407 (Chemical Carcinogenesis Research Information System (CCRIS), 2018).
Active and inactive are the calls of the source. How the calls were made is not given here.

Test system: CCRIS mutagenicity, Ames/micronucleus/aberration tests
Assay: CCRIS mutagenicity studies
[1] = Test System: AMES SALMONELLA TYPHIMURIUM, Strain/Indicator: TA98, Metabolic Activation: RAT, LIVER, S-9, AROCLOR 1254, Method: STANDARD PLATE
[2] = Test System: AMES SALMONELLA TYPHIMURIUM, Strain/Indicator: TA100, Metabolic Activation: RAT, LIVER, S-9, AROCLOR 1254, Method: STANDARD PLATE
[3] = Test System: AMES SALMONELLA TYPHIMURIUM, Strain/Indicator: TA98, Metabolic Activation: NONE, Method: STANDARD PLATE
[4] = Test System: AMES SALMONELLA TYPHIMURIUM, Strain/Indicator: TA100, Metabolic Activation: NONE, Method: STANDARD PLATE

**Q.** Which mutagenic call (Test System: AMES SALMONELLA TYPHIMURIUM, Strain/Indicator: TA98, Metabolic Activation: HAMSTER, LIVER, S-9, Method: PREINCUBATION (PRIVAL METHOD)) does the source give for `CCOC(=O)C(=NNc1ccc(-c2ccc(NN=C(C(=O)OCC)C(=O)OCC)cc2)cc1)C(=O)OCC` here?
**A.** inactive; negative

**Q.** `Cc1cc(C)cc(NO)c1` was tested. Which mutagenic call (Test System: AMES SALMONELLA TYPHIMURIUM, Strain/Indicator: TA100, Metabolic Activation: RAT, LIVER, S-9, PCB, Method: PREINCUBATION) did it give?
**A.** active; positive

**Q.** How did the mutagenic call (End Point: IN VITRO CHROMOSOMAL ABERRATIONS, Test System: CHL CELLS, Metabolic Activation: RAT, LIVER, S-9, SODIUM PHENOBARBITAL AND 5,6-BENZOFLAVONE) turn out when `c1ccc2c(c1)ccc1ncccc12` was run?
**A.** active; positive (structural changes)

**Q.** What about the mutagenic call (End Point: IN VITRO MICRONUCLEUS, Test System: CHL/IU CELLS, Metabolic Activation: NONE) of the same compound?
**A.** active; positive

**Q.** What about the mutagenic call [1] of the same compound?
**A.** active; positive

**Q.** And the mutagenic call (Test System: AMES SALMONELLA TYPHIMURIUM, Strain/Indicator: TA100, Metabolic Activation: RAT, LIVER, S-9, AROCLOR 1254, Method: PREINCUBATION)?
**A.** active; positive

**Q.** What about the mutagenic call [2] of the same compound?
**A.** active; positive

**Q.** And the mutagenic call (Test System: AMES SALMONELLA TYPHIMURIUM, Strain/Indicator: TA100, Metabolic Activation: RAT, LIVER, S-9, PHENOBARBITAL AND 5,6-BENZOFLAVONE, Method: PREINCUBATION)?
**A.** active; positive

**Q.** `COC1=C[C@@H]2[C@@H]3Cc4ccc(OC)c(O)c4[C@]2(CCN3C)CC1=O` was tested. Which mutagenic call (Test System: AMES SALMONELLA TYPHIMURIUM, Strain/Indicator: TA98, Metabolic Activation: RAT, LIVER, S-9, PHENOBARBITAL AND BETA-NAPHTHOFLAVONE, Method: PREINCUBATION) did it give?
**A.** inactive; negative

**Q.** What about the mutagenic call (Test System: AMES SALMONELLA TYPHIMURIUM, Strain/Indicator: TA100, Metabolic Activation: RAT, LIVER, S-9, PHENOBARBITAL AND BETA-NAPHTHOFLAVONE, Method: PREINCUBATION) of the same compound?
**A.** inactive; negative

**Q.** Which mutagenic call (Test System: AMES SALMONELLA TYPHIMURIUM, Strain/Indicator: TA98, Metabolic Activation: HAMSTER, LIVER, S-9, AROCLOR 1254, Method: STANDARD PLATE) does the source give for `O=C(CCl)c1ccc(Cl)cc1Cl` here?
**A.** inactive; negative

**Q.** And the mutagenic call [3]?
**A.** inactive; negative

**Q.** And the mutagenic call [1]?
**A.** inactive; negative

**Q.** What about the mutagenic call (Test System: AMES SALMONELLA TYPHIMURIUM, Strain/Indicator: TA100, Metabolic Activation: HAMSTER, LIVER, S-9, AROCLOR 1254, Method: STANDARD PLATE) of the same compound?
**A.** inactive; negative

**Q.** And the mutagenic call [4]?
**A.** inactive; negative

**Q.** And the mutagenic call [2]?
**A.** inactive; negative

**Q.** And the mutagenic call (Test System: AMES SALMONELLA TYPHIMURIUM, Strain/Indicator: TA1535, Metabolic Activation: HAMSTER, LIVER, S-9, AROCLOR 1254, Method: STANDARD PLATE)?
**A.** inactive; negative

**Q.** And the mutagenic call (Test System: AMES SALMONELLA TYPHIMURIUM, Strain/Indicator: TA1535, Metabolic Activation: NONE, Method: STANDARD PLATE)?
**A.** inactive; negative

**Q.** And the mutagenic call (Test System: AMES SALMONELLA TYPHIMURIUM, Strain/Indicator: TA1535, Metabolic Activation: RAT, LIVER, S-9, AROCLOR 1254, Method: STANDARD PLATE)?
**A.** inactive; negative

**Q.** What about the mutagenic call (Test System: AMES SALMONELLA TYPHIMURIUM, Strain/Indicator: TA1537, Metabolic Activation: HAMSTER, LIVER, S-9, AROCLOR 1254, Method: STANDARD PLATE) of the same compound?
**A.** inactive; negative

**Q.** What about the mutagenic call (Test System: AMES SALMONELLA TYPHIMURIUM, Strain/Indicator: TA1537, Metabolic Activation: NONE, Method: STANDARD PLATE) of the same compound?
**A.** inactive; negative

**Q.** And the mutagenic call (Test System: AMES SALMONELLA TYPHIMURIUM, Strain/Indicator: TA1537, Metabolic Activation: RAT, LIVER, S-9, AROCLOR 1254, Method: STANDARD PLATE)?
**A.** inactive; negative

**Q.** What about the mutagenic call (Test System: MOUSE LYMPHOMA, Strain/Indicator: L5178Y (TK+/TK-), Metabolic Activation: NONE, Method: SUSPENSION/PLATE) of the same compound?
**A.** inactive; negative. reevaluation of results: negative

**Q.** And the mutagenic call (Test System: MOUSE LYMPHOMA, Strain/Indicator: L5178Y (TK+/TK-), Metabolic Activation: RAT, LIVER, S-9, AROCLOR 1254, Method: SUSPENSION/PLATE)?
**A.** inactive; negative. reevaluation of results: negative

**Q.** With `CCC(C)Cl` (stereo not given) as the compound, how does the mutagenic call (Test System: Mouse lymphoma, Strain/Indicator: L5178Y (tk+/tk-), Metabolic Activation: None, Method: Suspension/plate) read?
**A.** inactive; negative

**Q.** What about the mutagenic call (Test System: Mouse lymphoma, Strain/Indicator: L5178Y (tk+/tk-), Metabolic Activation: Rat, Liver, S-9, Aroclor 1254, Method: Suspension/plate) of the same compound?
**A.** inactive; negative

**Q.** Which mutagenic call [4] does the source give for `O=c1c(O)c2c(c3c1ccc1c3cccn1O)O2` here?
**A.** inactive; negative

**Q.** What does the source list for `COC(=O)Nc1nc2ccc(C(=O)c3ccccc3)cc2[nH]1`?
**A.** mutagenic call [3]: inactive; negative; mutagenic call [1]: active; positive; mutagenic call [4]: inactive; negative
